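The compound was tested at five concentrations on cells cultured in 96-well plates, with a 48-hour exposure period. GI50: concentration for 50% inhibition of growth.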 Active and inactive are the calls of the source. No stated cut-off is given here; in the data, active = GI50 up to about 1.1 µM and inactive = higher.
Experiments:
Assay in all cases: growth of human tumour cells (NCI), 48 h
HOP-62 = tested on: HOP-62
SNB-78 = tested on: SNB-78
KM-20L2 = tested on: KM-20L2
UACC-257 = tested on: UACC-257
SK-MEL-28 = tested on: SK-MEL-28
OVCAR-8 = tested on: OVCAR-8
DMS-114 = tested on: DMS-114
COLO 205 = tested on: COLO 205
DMS-273 = tested on: DMS-273
LXFL 529 = tested on: LXFL 529
TK-10 = tested on: TK-10
HOP-18 = tested on: HOP-18
NCI-H226 = tested on: NCI-H226
NCI-H522 = tested on: NCI-H522
786-0 = tested on: 786-0

| Compound | GI50 (HOP-62) | GI50 (SNB-78) | GI50 (KM-20L2) | GI50 (UACC-257) | GI50 (SK-MEL-28) | GI50 (OVCAR-8) | GI50 (DMS-114) | GI50 (COLO 205) | GI50 (DMS-273) | GI50 (LXFL 529) | GI50 (TK-10) | GI50 (HOP-18) | GI50 (NCI-H226) | GI50 (NCI-H522) | GI50 (786-0) |
| --- | --- | --- | --- | --- | --- | --- | --- | --- | --- | --- | --- | --- | --- | --- | --- |
| COc1ccc(C(=O)NNC(=O)c2nsc3ccccc23)cc1 | 44.5 µM (inactive) | > 100 µM (inactive) | 35.9 µM (inactive) | > 100 µM (inactive) | > 100 µM (inactive) | 60.1 µM (inactive) | 63 µM (inactive) | > 100 µM (inactive) | > 100 µM (inactive) | > 100 µM (inactive) | > 100 µM (inactive) |  |  |  |  |
| CCOC(=O)C1CCn2c(nc3c2c(=O)n(C)c(=O)n3C)S1 (centres undefined) | > 100 µM (inactive) | > 100 µM (inactive) | > 100 µM (inactive) | > 100 µM (inactive) |  | > 100 µM (inactive) |  |  | > 100 µM (inactive) | > 100 µM (inactive) | > 100 µM (inactive) | > 100 µM (inactive) | > 100 µM (inactive) | > 100 µM (inactive) |  |
| O=C(NN1C(=O)CSC1c1cccc(F)c1)c1ccncc1 (centres undefined) |  | > 100 µM (inactive) | > 100 µM (inactive) | > 100 µM (inactive) | > 100 µM (inactive) | > 100 µM (inactive) | > 100 µM (inactive) | > 100 µM (inactive) | > 100 µM (inactive) | > 100 µM (inactive) | > 100 µM (inactive) | < 0.01 µM (active) |  | > 100 µM (inactive) |  |
| Cc1cc(=O)c2c([nH]1)NS(=O)(=O)NC2=O | > 100 µM (inactive) | > 100 µM (inactive) |  | > 100 µM (inactive) | > 100 µM (inactive) | > 100 µM (inactive) |  | > 100 µM (inactive) | > 100 µM (inactive) | > 100 µM (inactive) | > 100 µM (inactive) |  | > 100 µM (inactive) | > 100 µM (inactive) | > 100 µM (inactive) |
| Cc1ccc(/N=N/C(C(=O)c2ccccc2)C(=O)c2ccccc2)cc1 | 21.1 µM (inactive) |  | 25.3 µM (inactive) | 29.4 µM (inactive) | 31.6 µM (inactive) | 28.6 µM (inactive) | 20.1 µM (inactive) | 22.6 µM (inactive) | 19.2 µM (inactive) | 14.5 µM (inactive) | 41.4 µM (inactive) |  | 17.6 µM (inactive) | 17.3 µM (inactive) | 16.7 µM (inactive) |
| CC1CC2=C(S(=O)(=O)c3ccccc3)CC(S(=O)(=O)c3ccccc3)(S(=O)(=O)c3ccccc3)CC21 (centres undefined) | > 100 µM (inactive) |  | > 100 µM (inactive) | > 100 µM (inactive) | > 100 µM (inactive) | > 100 µM (inactive) | 9.64 µM (inactive) | > 100 µM (inactive) | > 100 µM (inactive) |  | > 100 µM (inactive) | > 100 µM (inactive) | > 100 µM (inactive) |  |  |
| OC1CCOc2ccccc21 (centres undefined) | > 100 µM (inactive) |  | > 100 µM (inactive) |  | > 100 µM (inactive) | > 100 µM (inactive) | > 100 µM (inactive) | > 100 µM (inactive) | > 100 µM (inactive) | > 100 µM (inactive) | > 100 µM (inactive) | 56.2 µM (inactive) | > 100 µM (inactive) | > 100 µM (inactive) |  |
| Cc1cc(=O)oc2c1cc1ccc3cccc4ccc2c1c34 |  | 83 µM (inactive) | > 100 µM (inactive) |  | > 100 µM (inactive) | > 100 µM (inactive) |  | > 100 µM (inactive) |  | > 100 µM (inactive) | > 100 µM (inactive) | > 100 µM (inactive) | > 100 µM (inactive) | 64.7 µM (inactive) |  |
| COC1=CC(=O)C2(C=C1OC)OC[C@H]1Oc3c(ccc4c3C=CC(C)(C)O4)C(=O)[C@H]12 (some centres undefined) | 92.7 µM (inactive) | 37.8 µM (inactive) | 46.1 µM (inactive) | 37.8 µM (inactive) | 41.2 µM (inactive) | 37.5 µM (inactive) | 25.2 µM (inactive) | 36.6 µM (inactive) | 35.1 µM (inactive) | 33.3 µM (inactive) | 79.3 µM (inactive) |  |  | 16.7 µM (inactive) | 68.1 µM (inactive) |
| COc1ccc(C(=C(C#N)C#N)c2ccc(OC)cc2)cc1 | > 100 µM (inactive) | > 100 µM (inactive) | > 100 µM (inactive) | > 100 µM (inactive) | > 100 µM (inactive) | > 100 µM (inactive) | 77.1 µM (inactive) | > 100 µM (inactive) | > 100 µM (inactive) | > 100 µM (inactive) | > 100 µM (inactive) |  | > 100 µM (inactive) | 30 µM (inactive) | > 100 µM (inactive) |
| NC(=O)/N=C1/CCC2C3CCCC2C13 | > 100 µM (inactive) | > 100 µM (inactive) | > 100 µM (inactive) | > 100 µM (inactive) | > 100 µM (inactive) | > 100 µM (inactive) | > 100 µM (inactive) | > 100 µM (inactive) | > 100 µM (inactive) | > 100 µM (inactive) | > 100 µM (inactive) | > 100 µM (inactive) | 81.5 µM (inactive) | > 100 µM (inactive) | > 100 µM (inactive) |

— ChEMBL document CHEMBL1201862, “PubChem BioAssay data set” (2004)
